Laboratory results taken from patent US20260224573A1, “CRYSTAL FORM OF COMPOUND, AND PREPARATION METHOD AND USE THEREOF” (FELICAMED BIOTECHNOLOGY CO., LTD., priority 2023, published 2026).
Structures can show the parent of a compound that is named as a salt. Where two headings read alike, the source gives them in different places.

Experiments:
[1] = TGA weight loss / thermal stability; format: physicochemical; settings: for thermal stability: comparison of TGA/DSC patterns; for TGA weight loss: heated to 150° C.
Description: TGA and DSC patterns were collected on a TA Q5000 thermogravimetric analyzer and a TA Discovery 2500 differential scanning calorimeter, respectively.
TGA results were collected on a TA Discovery 5500 thermogravimetric analyzer, and DSC results were collected on a TA Discovery 2500 differential scanning calorimeter.

[2] = Assessment of dynamic solubility; format: physicochemical; settings: for pH of filtrate: 37° C.
[3] = Assessment of 24-h solubility in pH buffers; format: physicochemical; settings: room temperature; for FC: crystal transfer: Buffer (pH = 7.4); for solubility at 24 h: thermodynamic from solid, read-out: S: solubility, calculated as free form
[4] = Description: DVS isotherms were collected on an SMS (Surface Measurement Systems) DVS Intrinsic.
[5] = remark: listed apart in the source
Protocol: A method for testing the density and the tapped density included: (1) a certain mass of to-be-assessed sample was placed into a 5 mL measuring cylinder, and the volume at this moment was recorded. The bulk density was calculated by dividing the mass of the sample by the volume at this moment. (2) The measuring cylinder was slightly tapped 200 times, the final volume was recorded, and the tapped density was calculated by dividing the mass of the sample by the final volume. (3) Three parallel tests were conducted. A method for testing the angle of repose included: (1) a funnel was fixed vertically to a bottom surface, and the material was slowly placed into the funnel. (2) A well-proportioned cone of the material was formed on the bottom surface. The height and bottom surface diameter of the cone were measured. (3) Three parallel tests were conducted.

[6] = Pharmacokinetics of hydrochloride crystal form A in Beagle dogs; format: in vivo; settings: single i.g. 6 mg/kg
Protocol: In this experiment, three male Beagle dogs were randomly selected for administration. All the animals were fasted for at least 12 h before administration and were fed again 4 h after administration. […] The blood samples from the animals were collected through the jugular vein, with a blood sample volume of 0.5 mL/time. All collected whole blood samples were placed in centrifuge tubes containing EDTA-K2, and the centrifuge tubes were turned upside down to allow the anticoagulant and blood to be fully mixed. All the blood samples were placed on wet ice before centrifugation and centrifuged at 1500 g for 10 min to separate plasma. The plasma samples were transferred to sample tubes and stored at -40° C. to […] until analysis. The drug concentration in the plasma of each Beagle dog was detected by an LC-MS/MS method.

Remark: listed apart in the source
[7] = listed as hydrochloride crystal form A
[8] = dog, plasma, po, male Beagle dogs, mean
[9] = listed as phosphate crystal form A

CC[S@@](=N)(=O)C[C@H]1CC[C@H](N(C)c2ncnc3[nH]ccc23)CC1 [Hydrochloride crystal form A]
thermal stability [1]: high | TGA weight loss ([1]; listed as Hydrochloride Crystal Form A): 0.53% | TGA weight loss [1, 7]: 0.53% | pH of filtrate ([2]; FaSSIF, 1 h): 5.0 | pH of filtrate ([2]; FaSSIF, 4 h): 5.1 | pH of filtrate ([2]; FeSSIF, 2 h): 4.9 | pH of filtrate ([2]; FeSSIF, 4 h): 4.9 | pH of filtrate ([2]; H2O, 1 h): 4.0 | pH of filtrate ([2]; H2O, 2 h): 4.0 | pH of filtrate ([2]; H2O, 4 h): 4.0 | solubility ([2]; H2O, SGF, FaSSIF and FeSSIF, 37 °C, water, thermodynamic from solid, in H2O, fully soluble): > 9000 µg/mL | pH of filtrate ([2]; SGF, 1 h): 2.9 | pH of filtrate ([2]; SGF, 4 h): 3.0 | FC: crystal transfer [3]: Yes | FC: crystal transfer [3, 7]: transformed into the free crystal form A | solubility at 24 h ([3]; buffer pH 2.0, pH 2, aqueous buffer, Buffer (pH = 2.0)): > 9200 µg/mL | solubility at 24 h ([3]; buffer pH 4.5, pH 4.5, aqueous buffer, Buffer (pH = 4.5)): > 9200 µg/mL | hygroscopicity ([4]; 25° C./80% RH): slight hygroscopicity | Crystal transformation after DVS ([4]; XRPD before and after DVS): No | flowability ([5]; conclusion from Carr index and angle of repose): high flowability | Bulk density ([5]; single tests 1 to 3): 0.14 g/mL | Average bulk density ([5]; three parallel tests): 0.14 g/mL | Average tapped density ([5]; three parallel tests, tapped 200 times): 0.24 g/mL | AUC(0-inf) [6, 8]: 32100 ng·h/mL | AUC(0-t) [6, 8]: 31700 ng·h/mL | Cmax [6, 8]: 5290 ng/mL | Tmax [6, 8]: 0.417 h | half-life [6, 8]: 3.59 h | MRT inf ([6]; dog, plasma, po, male Beagle dogs, mean, read-out: MRT0-inf): 5.11 h | MRT last ([6]; dog, plasma, po, male Beagle dogs, mean, read-out: MRT0-t): 4.84 h | clinical observation [6]: no obvious abnormalities were found | UPLC peak Area, RRT 1.62 (25° C./60% RH/4 weeks): 0.05% | UPLC peak Area, RRT 2.10 (25° C./60% RH/4 weeks): 0.07% | UPLC peak Area, RRT 2.19 (25° C./60% RH/4 weeks): <0.05% | Crystal form Transform (25° C./60% RH/4 weeks, open): No | UPLC peak Area, RRT 1.00 (40° C./75% RH/4 weeks): 99.88% | UPLC peak Area, RRT 1.62 (40° C./75% RH/4 weeks): 0.05% | UPLC peak Area, RRT 2.10 (40° C./75% RH/4 weeks): 0.07% | UPLC peak Area, RRT 2.19 (40° C./75% RH/4 weeks): <0.05% | Crystal form Transform (40° C./75% RH/4 weeks, open): No | Purity (40° C./75% RH/4 weeks, open): 99.88 area % | UPLC peak Area, RRT 1.62 (80° C./1 d): 0.05% | UPLC peak Area, RRT 2.10 (80° C./1 d): 0.08% | UPLC peak Area, RRT 2.19 (80° C./1 d): <0.05% | Crystal form Transform (80° C./1 d, closed): No | Purity (80° C./1 d, closed): 99.87 area % | UPLC peak Area, RRT 1.00 (Starting): 99.82% | UPLC peak Area, RRT 1.62 (Starting): 0.05% | UPLC peak Area, RRT 2.10 (Starting): 0.08% | UPLC peak Area, RRT 2.19 (Starting): 0.06% | Starting purity (before storage, UPLC): 99.82 area %

CC[S@@](=N)(=O)C[C@H]1CC[C@H](N(C)c2ncnc3[nH]ccc23)CC1 [Phosphate crystal form A]
thermal stability [1, 9]: slightly poor thermal stability | TGA weight loss ([1]; listed as Phosphate Crystal Form A): 2.82% | TGA weight loss [1, 9]: 2.82%

CC[S@@](=N)(=O)C[C@H]1CC[C@H](N(C)c2ncnc3[nH]ccc23)CC1 [Sulfate crystal form A]
thermal stability ([1]; listed as sulfate crystal form A): poor thermal stability | TGA stepwise weight loss ([1]; heated to 100° C.): 14.83%
